Columns and labels:
LSK Flk2− cells [1] = experiment: Ex vivo culture of sorted LSK Flk2− cells with PTEN and/or GSK-3β inhibitors; format: cell-based, mouse; settings: for Expansion of LSK cells compared to control (photographs): 17 and 23 days culture, 1 μM CHIR99021, 200 nM BpV(pic); for Expansion of LSK Flk2− cells compared to media without either inhibitor: 28 days culture, inhibitor added individually
Procedure: LSK or LSK Flk2^− cells were sorted into 96-well U-bottom tissue culture plates at 100 cells/well with 200 μl media/well. Cells were incubated at 37° C., 5% O2, 5% CO2 (balance N2) for the indicated number of days. One-half total volume of media (see Table 1, below for the base media) was carefully pipetted from the top and replaced with fresh media every other day.
One hundred LSK Flk2^− cells were sorted from wild-type (C57Bl/6) mice and cultured in (1) media, (2) media+1 μM CHIR99021 (a GSK-3β inhibitor, a gift from Dr. Sheng Ding), (3) media+200 nM Dipotassium Bis-peroxo(picolinato)oxovanadate (BpV(pic), a PTEN inhibitor, available from Calbiochem, Cat. No. 203705), (4) media+1 μM CHIR99021+200 nM BpV(pic), (5) media+200 nM Shikonin (also a PTEN inhibitor, available from Calbiochem, Cat. No. 565850), and (6) media+200 nM Shikonin+1 μM CHIR99021. […] Cells were cultured as described above. […] Cells were examined at 17 days of culture (FIG. 3B, original magnification 100×) and 23 days (FIG. 3C, original magnification 40×).
LSK Flk2^− cells at 28 days culture in the indicated media conditions were examined (FIG. 3D, original magnification 200×).
FACS analysis of 28 day LSK Flk2^− cells cultured in media+BpV(pic)+CHIR99021 (FIG. 3E) was performed. Cells were pre-gated on live, lineage negative cells.
Fold expansion of LSK Flk2^− cells after 28 days culture in (1) media, (2) media+BpV(pic), (3) media+CHIR99021, and (4) media+CHIR99021+BpV(pic) were analyzed.
Cells cultured for 9 days in (1) media, (2) media+BpV(pic) (200 nM), (3) media+CHIR99021 (100 nM), and (4) media+CHIR99021 (100 nM)+BpV(pic) (200 nM) were re-sorted for LSK Flk2^− cells, and fold expansion of LSK Flk2^− cells after 9 days culture in the indicated conditions was determined (FIG. 3I).
FACS analysis was performed on 9 day LSK Flk2^− cells cultured in media+BpV(pic) (200 nM)+CHIR99021 (100 nM) (FIG. 3J). Cells were pre-gated on live, lineage negative cells.

LSK Flk2− cells [2] = experiment: Transplantation of cultured sorted LSK Flk2− cells into lethally irradiated CD45.1+ recipient mice with competitor cells; format: in vivo, mouse; settings: 1000 re-sorted LSK Flk2− cells from 28 day cultures; peripheral blood at 4 weeks post-transplant
Excerpt: Cells were harvested from the wells prior to transplantation by pipetting up and down several times before transferring to a fresh tube. Residual was then collected by adding more media and repeating. Cells were washed in DMEM (Invitrogen, Cat. No. 31053) without phenol red and added to the appropriate number of whole bone marrow rescue cells from a congenic donor (for 200,000 rescue cells+1,000 re-sorted LSK Flk2^− cells (FIGS. 3F-3H) or the non-adherent product of 10 days culture of 100 LSK Flk2^− cultured cells (FIGS. 3I-3K) per mouse as indicated). […]
Repopulation was measured at 4 weeks post-transplant by collection of periperal blood, red blood cell lysis, and staining of CD45.1 (recipient) compared to CD45.2 (donor) engraftment using antibodies purchased from eBiosciences (FITC conjugated CD45.2 (Cat. No. 11-0454-85) and PE-Cy5 conjugated CD45.1 (Cat. No. 15-0453-82)). […] Multi-lineage reconstitution was determined by CD3, B220 (for lymphoid) and Gr1, Mac-1 (for myeloid), as described above.
Cells cultured for 28 days in (1) media, (2) media+BpV(pic), (3) media+CHIR99021 and (4) media+CHIR99021 (1 μM)+BpV(pic) (200 nM) were re-sorted for LSK Flk2^− cells. […] At 4 weeks post-transplant, peripheral blood was analyzed for donor (FIG. 3G) and multi-lineage (FIG. 3H) engraftment. […]

LSK Flk2− cells [3] = experiment: Bone marrow MNC culture in HSC expansion media with CHIR99021 and PI3K inhibitor, FACS for LSK Flk2− expansion (FIG. 21); format: cell-based, mouse; settings: for Expansion of LSK Flk2− cells: bone marrow MNCs cultured 10 days in ST media, 250 nM CHIR99021 or indicated concentrations of NVP-BEZ235
Procedure: Bone marrow MNCs were cultured for 10 days in an HSC expansion media with and without 250 nM CHIR99021, along with the indicated concentrations of PI3K inhibitor ([…]. et al. Identification and characterization of NVP-BEZ235, a new orally available dual phosphatidylinositol 3-kinase/mammalian target of rapamycin inhibitor with potent in vivo antitumor activity. (Molecular cancer therapeutics 7, 1851-1863 (2008)), and then subjected to FACS analysis to determine expansion of LSK Flk2^- cells. The inventors have developed a defined culture system utilizing only two cytokines, stem cell factor (SCF) and thrombopoietin (Tpo) (ST media), which have been shown previously to support HSC expansion in vitro (Zhang, […]. Murine hematopoietic stem cells change their surface phenotype during ex vivo expansion. Blood 105, 4314-4320 (2005)). […] Also, the ability of CHIR99021 to enhance expansion was negated by PI3K inhibition (FIG. 21).

LSK Flk2− cells [4] = experiment: Competitive repopulation after 14 days ex vivo expansion of sorted HSCs or unsorted MNCs with or without CHIR99021; format: in vivo, mouse; settings: long-term engraftment, competitor cells present
Procedure: For the experimental results shown in FIG. 13A, sorted LSK Flk2^− cells and unsorted MNCs containing a known quantity of LSK Flk2^− cells (CD45.2^+) were cultured for 14 days in ST media with and without CHIR99021. The cultured product of 100 sorted or 5 unsorted LSK Flk2^− cells per mouse were transplanted into lethally irradiated recipients (CD45.1^+). 5 freshly isolated, unsorted LSK Flk2^− cells per mouse were transplanted into a separate group. 1×10^5 freshly isolated CD45.1^+ competitor/radioprotective cells were also added per mouse. Peripheral blood analysis of recipients at 16 weeks post-transplant depicts % chimerism.
For the experiments set forth in this Example, a particular HSC expansion media was used. […]
Bone marrow cells were harvested from C57Bl/6 (CD45.2) mice and made into a single cell suspension by gently drawing through a 22 g needle several times. […] Cells were counted and a fraction of mononuclear cells (MNCs) were stained for lineage markers using CD3, CD4, CD8, B220, IgM, Mac-1, Gr1, and Ter119 antibodies along with Kit, Sca-1, and Flk2 for mouse HSC analysis or CD34 and CD38 for human HSC analysis. […] Frequency of putative HSCs (lineage negative, Sca-1^+, Kit^+, […] for mouse or CD34^+, CD38^− cells for human) was determined by analyzing >3×10^5 cells per sample independently in triplicate. […]

LSK Flk2− cells [5] = experiment: Transplantation of ex vivo expanded MNCs without competitor/radioprotective cells, with serial (secondary) transplantation; format: in vivo, mouse
Procedure: For this experiment, MNCs with a known quantity of putative HSCs were cultured with and without CHIR99021 for 14 days. After 14 days, the cellular product of these cultures was transplanted into lethally-irradiated recipients at a dosage corresponding to an original input into culture of MNCs containing 5 LSKF^− cells per mouse. Freshly isolated MNCs containing either 5 or 500 LSKF− cells were also transplanted into 2 additional lethally irradiated groups of mice. No rescue/competitor bone marrow cells were included.
At 16 weeks post-transplant, mice transplanted with MNCs containing 5 or 500 LSKF^− cells freshly isolated or cultured for 14 days described in FIGS. 6A-6D were sacrificed and bone marrow isolated. A secondary transplantation was performed on new groups of lethally irradiated mice by transplanting 1×10^6 bone marrow cells from the original transplant group per mouse. At 4 weeks post-transplant, peripheral blood was collected from each transplant recipient and donor-derived repopulation was determined.

## Cc1c[nH]c(-c2cnc(NCCNc3ccc(C#N)cn3)nc2-c2ccc(Cl)cc2Cl)n1 [CHIR99021]
LSK Flk2− cells [1]
  Expansion of LSK cells compared to control (photographs): greater expansion
  Expansion of LSK Flk2− cells compared to media without either inhibitor: significant expansion
LSK Flk2− cells [2]
  Mice showing >1% engraftment: 4/8
LSK Flk2− cells [3]
  Expansion of LSK Flk2− cells: increased the expansion
LSK Flk2− cells [4]; 100 sorted putative HSCs cultured 14 days with CHIR99021 (250 nM)
  Average repopulation: 12.3%
LSK Flk2− cells [4]; unsorted MNC cultures, 14 days with CHIR99021 (250 nM)
  Average repopulation: 64.8%
LSK Flk2− cells [5]; 16 weeks post-secondary transplant, MNCs containing 5 LSK Flk2− cells expanded 14 days in ST media with CHIR99021, no competitor cells
  Donor reconstitution: 90.6±4.8%
LSK Flk2− cells [5]; 16 weeks post-secondary transplantation, expanded MNCs with 5 putative HSCs vs fresh MNCs with 500
  Long-term repopulation equivalent to a greater dose of fresh, unexpanded cells: 100 fold

## Cn1c(=O)n(-c2ccc(C(C)(C)C#N)cc2)c2c3cc(-c4cnc5ccccc5c4)ccc3ncc21 [NVP-BEZ235]
LSK Flk2− cells [3]; PI3K inhibitor added together with 250 nM CHIR99021, 10 days
  Ability of CHIR99021 to enhance expansion of LSK Flk2− cells: negated
LSK Flk2− cells [3]
  Expansion of LSK Flk2− cells: decreased the ability of LSK Flk2^− cells to expand in a dose-dependent manner

## Dipotassium Bis-peroxo(picolinato)oxovanadate [BpV(pic)]
LSK Flk2− cells [1]
  Expansion of LSK cells compared to control (photographs): greater expansion
  Expansion of LSK Flk2− cells compared to media without either inhibitor: significant expansion
LSK Flk2− cells [2]
  Mice showing >1% engraftment: 0/10
